# Reference: ChEMBL document CHEMBL1201862, “PubChem BioAssay data set” (2004)
# Active and inactive are the calls of the source.
# Tests used:
# [1] = biological target: Prothrombin (Homo sapiens, UniProt P00734); assay: Thrombin 1536 HTS Dose Response Confirmation. [Related pubchem assays: 1046 (Thrombin 1536 HTS; hits were confirmed in this assay)]; type: functional
# [2] = biological target: T1, Voltage-gated N-type calcium channel alpha-1B subunit/Amyloid beta A4 precursor protein-binding family A member 1 (Homo sapiens, UniProt Q00975+Q02410); type: protein assay
# [3] = biological target: T1, Voltage-gated N-type calcium channel alpha-1B subunit/Amyloid beta A4 precursor protein-binding family A member 1; type: protein assay; remark: listed apart in the source
# [4] = MC4R antagonists, dose response, counter-screen for LGR2 antagonist project, cell-based, plate reader, cherry pick (AID 743444); type: functional;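 further: transfected HEK 293 cells stimulated with alpha-MSH peptide; potency of inhibitors of the alpha-MSH evoked signal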
# [5] = HepG2 cell cytotoxicity, dose response, cytotoxicity control, plate reader, cherry-pick, antagonist series (AID 743416); type: functional, cell-based
# [6] = biological target: T2, Microphthalmia-associated transcription factor (Homo sapiens, UniProt O75030); assay: TRPM1 promoter luciferase signal decrease, dose response, MITF inhibitor project, cell-based, SK-MEL-5, cherry-picked, set 3 (AID 493073); type: functional
# T2 sequence (O75030 whole entry): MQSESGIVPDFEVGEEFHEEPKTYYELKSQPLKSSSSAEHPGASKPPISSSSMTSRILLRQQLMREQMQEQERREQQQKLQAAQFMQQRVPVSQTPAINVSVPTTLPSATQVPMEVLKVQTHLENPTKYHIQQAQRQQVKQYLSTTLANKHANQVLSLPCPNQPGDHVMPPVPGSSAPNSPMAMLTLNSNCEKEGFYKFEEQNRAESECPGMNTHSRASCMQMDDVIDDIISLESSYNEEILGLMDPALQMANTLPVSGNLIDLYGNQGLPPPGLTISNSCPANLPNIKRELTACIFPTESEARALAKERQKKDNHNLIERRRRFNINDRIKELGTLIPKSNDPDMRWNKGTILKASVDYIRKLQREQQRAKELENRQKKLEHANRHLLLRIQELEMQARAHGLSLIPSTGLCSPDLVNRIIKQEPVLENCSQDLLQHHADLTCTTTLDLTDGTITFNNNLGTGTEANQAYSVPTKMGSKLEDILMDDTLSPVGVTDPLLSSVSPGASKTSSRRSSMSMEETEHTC
# [7] = A549 cell cytotoxicity, dose response, cytotoxicity control, plate reader, cherry-pick, antagonist series (AID 743412); type: functional, cell-based
# [8] = Luminescence Cell-Based Dose Response HTS to Identify Inhibitors of 5'UTR Stem-Loop Driven Prion Protein mRNA Translation in H4 Neuroglioblastoma Cells. [Related pubchem assays: 1827 (Project Summary), 1813 (Primary HTS)]; type: functional
# [9] = LGR2 antagonists, dose response, cell-based, HEK293, CRE-luciferase reporter, cherry pick, set 2 (AID 743343); type: functional;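 further: transfected cells were stimulated with diluted bursicon conditioned medium after compound addition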
# [10] = HEK293 cell cytotoxicity, dose response, cytotoxicity control, plate reader, cherry-picked samples (AID 743446); type: functional, cell-based
# [11] = inhibitors of SNCA 5'UTR-driven reporter translation, confirmation, H4 neuroglioma cells, luminescence (AID 1988); type: functional, cell-based
# [12] = inhibitors of firefly luciferase expression or activity, dose response, H4 neuroglioma cells, luminescence (AID 1990); type: functional, cell-based
# [13] = biological target: Ephrin type-A receptor 4 (Mus musculus, UniProt Q03137); assay: inhibitors of EphA4 binding to KYL peptide, primary screen, biochemical, colorimetric, mouse EphA4 (AID 689); type: functional
# [14] = biological target: Peroxisome proliferator-activated receptor gamma/Nuclear receptor coactivator 3 (Homo sapiens, UniProt P37231); type: functional;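 further: agonist potency for raising coactivator recruitment to the receptor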
# [15] = biological target: Peroxisome proliferator-activated receptor gamma/Nuclear receptor coactivator 1 (Homo sapiens, UniProt P37231); type: functional;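 further: agonist potency as compounds enhance coactivator SRC-1 recruitment to PPARgamma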
# [16] = biological target: Peroxisome proliferator-activated receptor gamma/Nuclear receptor coactivator 2 (Homo sapiens, UniProt P37231); type: functional;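 further: agonist potency for raising coactivator recruitment to the receptor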
# [17] = A cytotoxicity screen of small molecule inhibitors of the PhoP region in Salmonella typhi identified in the primary screen. [Related pubchem assays: 1850, 1864, 1985 ]; type: functional
# [18] = biological target: T3, Short transient receptor potential channel 4 (Mus musculus, UniProt Q9QUQ5); assay: mouse TRPC4 channel inhibitors, dose response, cell-based, HEK293 TRPC4/mu-opioid, Fluo-4 calcium (AID 434942); type: functional;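 further: potency of inhibitors blocking the TRPC4 calcium response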
# T3 sequence (Q9QUQ5 whole entry): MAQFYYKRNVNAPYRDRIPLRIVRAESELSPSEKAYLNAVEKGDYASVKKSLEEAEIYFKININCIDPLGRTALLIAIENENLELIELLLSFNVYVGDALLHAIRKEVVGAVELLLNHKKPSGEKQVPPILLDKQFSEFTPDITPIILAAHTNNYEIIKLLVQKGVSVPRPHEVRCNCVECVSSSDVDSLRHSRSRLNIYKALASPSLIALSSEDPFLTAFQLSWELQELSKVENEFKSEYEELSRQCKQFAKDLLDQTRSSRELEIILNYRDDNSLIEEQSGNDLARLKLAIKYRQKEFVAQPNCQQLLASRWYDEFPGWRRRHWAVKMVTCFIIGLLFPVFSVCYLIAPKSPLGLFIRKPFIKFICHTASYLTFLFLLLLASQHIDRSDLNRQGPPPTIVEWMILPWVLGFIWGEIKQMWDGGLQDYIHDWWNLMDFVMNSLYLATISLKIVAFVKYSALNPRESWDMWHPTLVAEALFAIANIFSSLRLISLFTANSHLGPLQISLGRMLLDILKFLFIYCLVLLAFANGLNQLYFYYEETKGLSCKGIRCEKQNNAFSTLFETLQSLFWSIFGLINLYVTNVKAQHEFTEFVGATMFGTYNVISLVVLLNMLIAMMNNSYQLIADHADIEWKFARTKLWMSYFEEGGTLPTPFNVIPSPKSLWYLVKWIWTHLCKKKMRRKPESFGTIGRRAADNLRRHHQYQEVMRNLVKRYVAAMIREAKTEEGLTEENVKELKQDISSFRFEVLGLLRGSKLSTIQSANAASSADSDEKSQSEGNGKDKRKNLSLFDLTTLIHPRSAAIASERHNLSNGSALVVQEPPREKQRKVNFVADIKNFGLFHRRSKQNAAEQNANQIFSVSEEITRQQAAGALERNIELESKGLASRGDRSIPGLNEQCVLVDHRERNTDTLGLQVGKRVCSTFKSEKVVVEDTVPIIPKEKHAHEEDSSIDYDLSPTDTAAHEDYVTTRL
# [19] = insulin promoter down-regulators in MIN6 cells, imaging, high-content screening, mouse beta cells (AID 1628); type: functional
# [20] = cytotoxicity toward DRD oncogenic fibroblasts, dose response, cell-based, non-viral oncogenic, luminescence (AID 1934); type: functional; conditions: Homo sapiens
# [21] = test system: INS1; assay: beta cell apoptosis inhibitors, cytokine rescue, dose response, luminescence, retest (AID 449756); type: functional, cell-based; conditions: Rattus norvegicus;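 further: cell death triggered by IL-1 beta plus TNF-alpha plus IFN-gamma mixture; protective hits raise ATP signal compared with cytokine alone wells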
# [22] = test system: BJ; assay: cells; type: functional, cell-based; conditions: Homo sapiens
# [23] = Luminescence Cell-Based Dose Retest to Confirm Inhibitors of Cancer Stem Cells. [Related pubchem assays (depositor defined):AID2717, AID2721]; type: functional; conditions: Homo sapiens
# [24] = cytotoxicity toward NIH3T3 fibroblasts, dose response, counter-screen, cell-based, ATP luminescence, mouse fibroblasts (AID 2010); type: functional;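 further: cells exposed to compound for about 90 hours before reading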
# [25] = test system: BJ; assay: cytotoxicity toward BJ-TERT fibroblasts, dose response, cell-based, RAS-independent, luminescence (AID 1933); type: functional; conditions: Homo sapiens
# [26] = cytotoxicity in MIN6 insulinoma cells, dose response, cytotoxicity control, cell-based, mouse insulinoma (AID 2122); type: functional;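 further: confirmatory high-throughput counterscreen run to flag cytotoxic compounds; mouse MIN-6 beta cells carrying an insulin promoter eGFP reporter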
# [27] = inhibitors of intracellular T. cruzi replication, confirmation, NIH3T3 host cells, beta-gal luminescence (AID 2044); type: functional, cell-based;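 further: intracellular parasites grown in NIH/3T3 mouse fibroblasts as host cells; luminescent beta-galactosidase reporter signal from transgenic T. cruzi replicating inside host cells; inhibitors lower the luminescence signal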
# [28] = test system: BJ; assay: cytotoxicity toward BJ-TERT-LT-ST fibroblasts, dose response, cell-based, RAS-independent, luminescence (AID 1935); type: functional; conditions: Homo sapiens;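 further: BJ fibroblasts immortalized with TERT plus LT and ST oncogenes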
# [29] = biological target: T4, Ubiquitin-conjugating enzyme E2 N (Homo sapiens, UniProt P61088); type: functional;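 further: Dose-response confirmation in a TR-FRET assay detecting UBC13-driven polyubiquitin chain formation, inhibition measured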
# T4 sequence (P61088 whole entry): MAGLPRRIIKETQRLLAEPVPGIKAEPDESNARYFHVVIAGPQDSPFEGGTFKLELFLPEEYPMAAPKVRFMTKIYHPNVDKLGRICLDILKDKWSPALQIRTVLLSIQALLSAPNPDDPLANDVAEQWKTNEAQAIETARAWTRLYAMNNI
# T1 sequence (Q00975 whole entry): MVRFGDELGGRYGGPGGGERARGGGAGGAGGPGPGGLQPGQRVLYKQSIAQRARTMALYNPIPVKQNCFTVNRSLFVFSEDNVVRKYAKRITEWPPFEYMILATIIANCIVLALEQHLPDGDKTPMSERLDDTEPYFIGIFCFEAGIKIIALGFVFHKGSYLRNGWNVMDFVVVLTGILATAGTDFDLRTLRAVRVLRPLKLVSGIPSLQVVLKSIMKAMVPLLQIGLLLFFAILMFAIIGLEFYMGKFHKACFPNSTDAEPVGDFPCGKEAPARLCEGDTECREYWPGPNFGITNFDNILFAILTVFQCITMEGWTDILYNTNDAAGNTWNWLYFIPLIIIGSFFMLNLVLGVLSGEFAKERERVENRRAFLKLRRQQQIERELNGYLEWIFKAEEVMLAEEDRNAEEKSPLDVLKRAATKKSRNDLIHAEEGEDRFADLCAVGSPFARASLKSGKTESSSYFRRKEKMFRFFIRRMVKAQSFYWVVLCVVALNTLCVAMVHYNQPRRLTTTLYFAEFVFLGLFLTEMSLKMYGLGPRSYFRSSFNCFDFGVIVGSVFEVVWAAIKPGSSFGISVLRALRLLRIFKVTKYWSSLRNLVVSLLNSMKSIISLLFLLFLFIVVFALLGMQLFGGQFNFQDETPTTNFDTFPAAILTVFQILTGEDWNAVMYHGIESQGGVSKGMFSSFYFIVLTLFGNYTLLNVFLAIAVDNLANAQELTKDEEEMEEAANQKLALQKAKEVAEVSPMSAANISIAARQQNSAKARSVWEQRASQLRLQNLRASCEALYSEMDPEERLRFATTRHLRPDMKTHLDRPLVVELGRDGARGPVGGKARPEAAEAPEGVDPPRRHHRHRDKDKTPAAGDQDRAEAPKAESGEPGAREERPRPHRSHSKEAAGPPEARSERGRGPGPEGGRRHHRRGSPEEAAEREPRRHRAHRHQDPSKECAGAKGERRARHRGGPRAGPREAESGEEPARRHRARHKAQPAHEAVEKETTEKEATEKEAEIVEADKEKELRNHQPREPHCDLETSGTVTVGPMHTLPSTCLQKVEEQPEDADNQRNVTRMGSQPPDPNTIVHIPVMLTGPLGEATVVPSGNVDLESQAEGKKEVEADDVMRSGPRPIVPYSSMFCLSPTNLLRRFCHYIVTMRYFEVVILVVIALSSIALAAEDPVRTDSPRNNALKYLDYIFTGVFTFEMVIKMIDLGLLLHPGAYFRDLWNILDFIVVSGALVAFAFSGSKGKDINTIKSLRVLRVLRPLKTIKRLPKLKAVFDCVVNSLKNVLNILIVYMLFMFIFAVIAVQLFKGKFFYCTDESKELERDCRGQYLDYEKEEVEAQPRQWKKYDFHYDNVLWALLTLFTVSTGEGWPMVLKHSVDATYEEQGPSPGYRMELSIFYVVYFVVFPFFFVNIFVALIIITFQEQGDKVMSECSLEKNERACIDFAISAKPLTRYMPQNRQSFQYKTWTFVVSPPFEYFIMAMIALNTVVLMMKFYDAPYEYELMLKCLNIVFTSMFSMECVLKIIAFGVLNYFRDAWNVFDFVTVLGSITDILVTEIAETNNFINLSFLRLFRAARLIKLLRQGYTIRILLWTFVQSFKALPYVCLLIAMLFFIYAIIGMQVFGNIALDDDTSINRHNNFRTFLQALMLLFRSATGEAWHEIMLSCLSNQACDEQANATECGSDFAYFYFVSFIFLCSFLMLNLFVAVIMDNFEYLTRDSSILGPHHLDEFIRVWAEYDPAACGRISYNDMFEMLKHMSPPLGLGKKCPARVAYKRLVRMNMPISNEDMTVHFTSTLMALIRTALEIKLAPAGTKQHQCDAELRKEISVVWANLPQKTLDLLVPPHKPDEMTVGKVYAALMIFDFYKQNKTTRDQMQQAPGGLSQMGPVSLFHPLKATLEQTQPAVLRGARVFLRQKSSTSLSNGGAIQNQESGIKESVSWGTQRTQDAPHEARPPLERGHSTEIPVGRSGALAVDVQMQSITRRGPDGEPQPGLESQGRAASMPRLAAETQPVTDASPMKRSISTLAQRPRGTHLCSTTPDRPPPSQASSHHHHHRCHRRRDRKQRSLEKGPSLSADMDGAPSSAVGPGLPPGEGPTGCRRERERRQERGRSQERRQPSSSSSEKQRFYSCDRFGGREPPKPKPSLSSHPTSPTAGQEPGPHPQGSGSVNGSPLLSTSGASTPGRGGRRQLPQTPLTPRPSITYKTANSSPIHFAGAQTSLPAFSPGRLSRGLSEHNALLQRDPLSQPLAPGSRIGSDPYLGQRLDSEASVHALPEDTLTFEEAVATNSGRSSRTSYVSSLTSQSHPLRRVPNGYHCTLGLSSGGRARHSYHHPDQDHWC
# T1 sequence (Q02410 whole entry): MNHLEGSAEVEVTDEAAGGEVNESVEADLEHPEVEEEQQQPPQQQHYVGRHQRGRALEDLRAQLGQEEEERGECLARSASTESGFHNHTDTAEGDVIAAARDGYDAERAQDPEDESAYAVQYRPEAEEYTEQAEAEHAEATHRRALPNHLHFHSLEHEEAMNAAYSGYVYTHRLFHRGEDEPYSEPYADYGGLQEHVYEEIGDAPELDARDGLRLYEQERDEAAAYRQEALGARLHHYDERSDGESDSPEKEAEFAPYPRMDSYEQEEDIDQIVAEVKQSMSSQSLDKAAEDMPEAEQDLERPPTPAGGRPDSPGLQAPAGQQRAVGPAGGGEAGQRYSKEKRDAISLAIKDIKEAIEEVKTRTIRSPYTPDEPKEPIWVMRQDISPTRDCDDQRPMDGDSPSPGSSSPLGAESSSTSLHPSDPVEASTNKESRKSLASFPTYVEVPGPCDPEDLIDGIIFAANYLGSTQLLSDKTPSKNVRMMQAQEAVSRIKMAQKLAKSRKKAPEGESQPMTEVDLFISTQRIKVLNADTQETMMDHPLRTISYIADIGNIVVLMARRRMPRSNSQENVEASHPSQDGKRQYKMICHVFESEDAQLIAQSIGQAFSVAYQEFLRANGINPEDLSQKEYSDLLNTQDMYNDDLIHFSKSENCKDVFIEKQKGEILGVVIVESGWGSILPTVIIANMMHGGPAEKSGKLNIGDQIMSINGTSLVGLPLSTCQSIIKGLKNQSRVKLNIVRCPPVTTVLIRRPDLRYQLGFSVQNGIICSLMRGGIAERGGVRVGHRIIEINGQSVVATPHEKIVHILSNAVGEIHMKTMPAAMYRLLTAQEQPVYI
# Peroxisome proliferator-activated receptor gamma/Nuclear receptor coactivator 1, sequence (P37231 whole entry): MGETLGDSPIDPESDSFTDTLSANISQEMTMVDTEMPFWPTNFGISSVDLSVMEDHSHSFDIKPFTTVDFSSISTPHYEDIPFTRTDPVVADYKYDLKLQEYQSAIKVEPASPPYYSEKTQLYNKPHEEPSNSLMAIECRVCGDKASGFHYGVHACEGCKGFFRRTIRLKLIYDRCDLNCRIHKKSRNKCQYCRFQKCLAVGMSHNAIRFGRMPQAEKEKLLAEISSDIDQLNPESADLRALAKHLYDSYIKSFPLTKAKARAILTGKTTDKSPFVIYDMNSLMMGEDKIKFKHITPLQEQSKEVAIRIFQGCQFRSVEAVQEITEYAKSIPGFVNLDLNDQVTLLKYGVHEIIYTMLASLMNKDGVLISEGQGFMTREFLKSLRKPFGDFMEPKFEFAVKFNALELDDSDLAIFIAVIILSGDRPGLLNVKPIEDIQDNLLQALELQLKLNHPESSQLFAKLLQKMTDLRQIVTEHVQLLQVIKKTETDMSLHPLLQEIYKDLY
# Peroxisome proliferator-activated receptor gamma/Nuclear receptor coactivator 1, sequence (Q15788 whole entry, further chain): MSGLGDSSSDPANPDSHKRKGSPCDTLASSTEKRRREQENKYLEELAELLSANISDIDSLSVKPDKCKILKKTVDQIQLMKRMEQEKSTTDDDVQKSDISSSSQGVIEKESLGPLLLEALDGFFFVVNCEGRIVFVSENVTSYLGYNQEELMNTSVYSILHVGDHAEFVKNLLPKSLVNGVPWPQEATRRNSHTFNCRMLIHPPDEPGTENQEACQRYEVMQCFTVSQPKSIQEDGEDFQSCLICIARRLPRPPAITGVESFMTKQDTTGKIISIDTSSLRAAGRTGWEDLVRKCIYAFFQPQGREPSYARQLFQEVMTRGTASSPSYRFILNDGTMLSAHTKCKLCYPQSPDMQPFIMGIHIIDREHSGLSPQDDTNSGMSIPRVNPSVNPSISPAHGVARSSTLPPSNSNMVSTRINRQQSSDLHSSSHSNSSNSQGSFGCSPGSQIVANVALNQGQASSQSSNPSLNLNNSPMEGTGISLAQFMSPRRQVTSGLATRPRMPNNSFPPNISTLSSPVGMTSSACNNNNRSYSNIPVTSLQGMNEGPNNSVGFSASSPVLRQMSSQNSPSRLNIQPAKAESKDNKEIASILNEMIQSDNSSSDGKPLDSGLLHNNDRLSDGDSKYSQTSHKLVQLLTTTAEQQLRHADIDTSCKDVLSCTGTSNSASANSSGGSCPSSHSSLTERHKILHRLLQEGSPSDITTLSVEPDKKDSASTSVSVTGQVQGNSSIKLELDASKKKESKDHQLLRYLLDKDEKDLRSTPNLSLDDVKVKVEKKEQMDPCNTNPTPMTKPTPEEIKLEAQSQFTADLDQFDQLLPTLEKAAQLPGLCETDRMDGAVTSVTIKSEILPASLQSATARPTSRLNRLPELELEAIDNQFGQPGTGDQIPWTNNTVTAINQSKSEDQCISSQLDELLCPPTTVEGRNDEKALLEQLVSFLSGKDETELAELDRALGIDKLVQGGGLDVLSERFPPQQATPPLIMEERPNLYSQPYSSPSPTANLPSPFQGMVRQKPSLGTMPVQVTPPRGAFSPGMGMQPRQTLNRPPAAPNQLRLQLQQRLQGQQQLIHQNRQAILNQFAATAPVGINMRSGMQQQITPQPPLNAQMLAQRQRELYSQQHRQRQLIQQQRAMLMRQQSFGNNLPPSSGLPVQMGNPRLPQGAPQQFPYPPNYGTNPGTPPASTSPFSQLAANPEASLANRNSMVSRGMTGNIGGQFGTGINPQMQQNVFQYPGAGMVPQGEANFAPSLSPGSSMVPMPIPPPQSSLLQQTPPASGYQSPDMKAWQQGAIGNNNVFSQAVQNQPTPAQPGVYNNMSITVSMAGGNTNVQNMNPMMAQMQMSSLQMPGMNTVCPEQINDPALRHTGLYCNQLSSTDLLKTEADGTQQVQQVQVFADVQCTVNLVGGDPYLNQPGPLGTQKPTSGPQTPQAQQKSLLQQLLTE
smiles,measurement,setting,value
Oc1nc2ccc(Cl)cc2c(-c2ccccc2)c1N1CCOCC1,IC50,[1],> 50 µM (not active)
Cc1ccc2[nH]c(=O)c(C=C3C(=O)NC(=S)NC3=O)cc2c1,IC50,[2],42.1 µM (active)
same,IC50,[3],9.32 µM (active)
O=c1c2ccccc2cnn1CCOc1ccccc1,AC50,[4],2.62 µM (active)
same,AC50,[5],> 52 µM (inactive)
same,AC50,[6],7.2 µM (active)
same,AC50,[7],45.5 µM (active)
same,EC50,[8],0.392 µM (active)
same,AC50,[9],2.52 µM (active)
same,AC50,[10],48.8 µM (active)
same,EC50,[11],1.97 µM (active)
same,EC50,[12],4.07 µM (active)
O=C(COC(=O)CCOc1ccccc1)Nc1ccc(Cl)cn1,IC50,[1],30.8 µM (active)
CC1=N/C(=C\c2ccc([N+](=O)[O-])cc2)C(=O)N1c1cc(Cl)ccc1C,IC50,[13],3.45 µM (active)
COc1ccc(-c2[nH]c3ccccc3c2SCCNC(=O)c2ccccc2)cc1,EC50,[14],< 79.4 µM (not active)
same,EC50,[15],39.5 µM (not active)
same,EC50,[16],33.6 µM (not active)
CCc1ccc2c(c1)cc(CN(C(=S)Nc1ccc(Cl)cc1)C1CC1)c1nnnn12,EC50,[14],11.6 µM (not active)
same,EC50,[15],11.5 µM (not active)
same,EC50,[16],8.9 µM (active)
COc1ccc(CC(=O)n2nc(-c3cccnc3)nc2N)cc1,IC50,[1],0.259 µM (active)
O=C(Nc1ccncc1)Nc1ccc(Cl)cc1,EC50,[17],> 50 µM (active)
COCCn1c(SCc2ccc(F)cc2)nc2ccccc2c1=O,EC50,[18],2.37 µM (active)
NS(=O)(=O)c1ccc(N/N=C/c2cn(-c3ccccc3)nc2-c2cccs2)c([N+](=O)[O-])c1,IC50,[19],1.43 µM (active)
same,EC50,[20],8.22 µM (active)
same,AC50,[21],4.07 µM (active)
same,EC50,[22],19.4 µM (active)
same,AC50,[23],1.39 µM (active)
same,EC50,[24],12.4 µM (active)
same,EC50,[25],4.24 µM (active)
same,IC50,[26],4.7 µM (active)
same,EC50,[27],0.846 µM (active)
same,EC50,[28],6.17 µM (inconclusive)
Cc1nc(N)sc1C(=O)N/N=C/c1ccco1,IC50,[29],> 20 µM (inactive)
CCOc1ccc(C(=O)Nc2ccc(-c3nc4ccccc4[nH]3)cc2)cc1[N+](=O)[O-],IC50,[2],> 50 µM (inactive)
same,IC50,[3],12.2 µM (active)
